US11000033B2, “Ketone or oxime compound, and herbicide” (NISSAN CHEMICAL CORPORATION, priority 2014, dated 2021)

Columns and labels:
Type in all cases: in vivo
Conditions in all cases: 320 g/ha, 3 weeks after application
rice plant = assay: Test Example 5: effect on crop by foliage application, plastic box (symbol b)
From the text: (§1) Herbicidal Effect Test by Foliage Application
(§2) Sterilized diluvial soil was placed in a plastic box having a length of 21 cm, a width of 13 cm, and a depth of 7 cm. Each of the seeds of Digitaria ciliaris, Setaria viridis, Echinochloa crus-galli var. crus-galli, Avena fatua, Alopecurus myosuroides, Lolium multiflorum Lam., Apera spica-venti, Abutilon theophrasti, Amaranthus retroflexus, Chenopodium album, Stellaria media, Galium spurium, Veronica persica, corn, soybean, rice plant, wheat, beet, and rapeseed was sowed in a spot-like manner and was covered with the soil of a thickness of about 1.5 cm. Thereafter, the plants were grown in the greenhouse of 25° C. to 30° C.

Alopecurus myosuroides = assay: Test Example 5: herbicidal effect by foliage application, plastic box (symbol J)
From the text: as §1
as §2, with “30° C. After the plants were grown for 14 days, the emulsion agent of the compound of the present invention prepared in accordance with Formulation Example 2 was diluted with water so as to be a predetermined herbicide amount and the diluted emulsion agent was uniformly applied to a foliage part with a small-size spray. 3 weeks later from the herbicide application, the effect to each plant was investigated in accordance with the criteria of Test Example 1.” for “30° C.”

rapeseed = assay: Test Example 5: effect on crop by foliage application, plastic box (symbol g)
From the text: as §1, §2

Amaranthus retroflexus = assay: Test Example 5: herbicidal effect by foliage application, plastic box (symbol N)
From the text: as §1
as §2, with “30° C. After the plants were grown for 14 days, the emulsion agent of the compound of the present invention prepared in accordance with Formulation Example 2 was diluted with water so as to be a predetermined herbicide amount and the diluted emulsion agent was uniformly applied to a foliage part with a small-size spray. 3 weeks later from the herbicide application, the effect to each plant was investigated in accordance with the criteria of Test Example 1.” for “30° C.”

Apera spica-venti = assay: Test Example 5: herbicidal effect by foliage application, plastic box (symbol L)
From the text: as §1
as §2, with “30° C. After the plants were grown for 14 days, the emulsion agent of the compound of the present invention prepared in accordance with Formulation Example 2 was diluted with water so as to be a predetermined herbicide amount and the diluted emulsion agent was uniformly applied to a foliage part with a small-size spray. 3 weeks later from the herbicide application, the effect to each plant was investigated in accordance with the criteria of Test Example 1.” for “30° C.”

Lolium multiflorum Lam. = assay: Test Example 5: herbicidal effect by foliage application, plastic box (symbol K)
From the text: as §1
as §2, with “30° C. After the plants were grown for 14 days, the emulsion agent of the compound of the present invention prepared in accordance with Formulation Example 2 was diluted with water so as to be a predetermined herbicide amount and the diluted emulsion agent was uniformly applied to a foliage part with a small-size spray. 3 weeks later from the herbicide application, the effect to each plant was investigated in accordance with the criteria of Test Example 1.” for “30° C.”

soybean = assay: Test Example 5: effect on crop by foliage application, plastic box (symbol d)
From the text: as §1, §2

wheat = assay: Test Example 5: effect on crop by foliage application, plastic box (symbol e)
From the text: as §1, §2

corn = assay: Test Example 5: effect on crop by foliage application, plastic box (symbol c)
From the text: as §1, §2

Digitaria ciliaris = assay: Test Example 5: herbicidal effect by foliage application, plastic box (symbol F)
From the text: as §1
as §2, with “30° C. After the plants were grown for 14 days, the emulsion agent of the compound of the present invention prepared in accordance with Formulation Example 2 was diluted with water so as to be a predetermined herbicide amount and the diluted emulsion agent was uniformly applied to a foliage part with a small-size spray. 3 weeks later from the herbicide application, the effect to each plant was investigated in accordance with the criteria of Test Example 1.” for “30° C.”

Avena fatua = assay: Test Example 5: herbicidal effect by foliage application, plastic box (symbol I)
From the text: as §1
as §2, with “30° C. After the plants were grown for 14 days, the emulsion agent of the compound of the present invention prepared in accordance with Formulation Example 2 was diluted with water so as to be a predetermined herbicide amount and the diluted emulsion agent was uniformly applied to a foliage part with a small-size spray. 3 weeks later from the herbicide application, the effect to each plant was investigated in accordance with the criteria of Test Example 1.” for “30° C.”

Galium spurium = assay: Test Example 5: herbicidal effect by foliage application, plastic box (symbol Q)
From the text: as §1
as §2, with “30° C. After the plants were grown for 14 days, the emulsion agent of the compound of the present invention prepared in accordance with Formulation Example 2 was diluted with water so as to be a predetermined herbicide amount and the diluted emulsion agent was uniformly applied to a foliage part with a small-size spray. 3 weeks later from the herbicide application, the effect to each plant was investigated in accordance with the criteria of Test Example 1.” for “30° C.”

[1] = system: Echinochloa crus-galli var. crus-galli; assay: Test Example 5: herbicidal effect by foliage application, plastic box (symbol H)
From the text: as §1
as §2, with “30° C. After the plants were grown for 14 days, the emulsion agent of the compound of the present invention prepared in accordance with Formulation Example 2 was diluted with water so as to be a predetermined herbicide amount and the diluted emulsion agent was uniformly applied to a foliage part with a small-size spray. 3 weeks later from the herbicide application, the effect to each plant was investigated in accordance with the criteria of Test Example 1.” for “30° C.”

Setaria viridis = assay: Test Example 5: herbicidal effect by foliage application, plastic box (symbol G)
From the text: as §1
as §2, with “30° C. After the plants were grown for 14 days, the emulsion agent of the compound of the present invention prepared in accordance with Formulation Example 2 was diluted with water so as to be a predetermined herbicide amount and the diluted emulsion agent was uniformly applied to a foliage part with a small-size spray. 3 weeks later from the herbicide application, the effect to each plant was investigated in accordance with the criteria of Test Example 1.” for “30° C.”

Stellaria media = assay: Test Example 5: herbicidal effect by foliage application, plastic box (symbol P)
From the text: as §1
as §2, with “30° C. After the plants were grown for 14 days, the emulsion agent of the compound of the present invention prepared in accordance with Formulation Example 2 was diluted with water so as to be a predetermined herbicide amount and the diluted emulsion agent was uniformly applied to a foliage part with a small-size spray. 3 weeks later from the herbicide application, the effect to each plant was investigated in accordance with the criteria of Test Example 1.” for “30° C.”

Chenopodium album = assay: Test Example 5: herbicidal effect by foliage application, plastic box (symbol O)
From the text: as §1
as §2, with “30° C. After the plants were grown for 14 days, the emulsion agent of the compound of the present invention prepared in accordance with Formulation Example 2 was diluted with water so as to be a predetermined herbicide amount and the diluted emulsion agent was uniformly applied to a foliage part with a small-size spray. 3 weeks later from the herbicide application, the effect to each plant was investigated in accordance with the criteria of Test Example 1.” for “30° C.”

Veronica persica = assay: Test Example 5: herbicidal effect by foliage application, plastic box (symbol R)
From the text: as §1
as §2, with “30° C. After the plants were grown for 14 days, the emulsion agent of the compound of the present invention prepared in accordance with Formulation Example 2 was diluted with water so as to be a predetermined herbicide amount and the diluted emulsion agent was uniformly applied to a foliage part with a small-size spray. 3 weeks later from the herbicide application, the effect to each plant was investigated in accordance with the criteria of Test Example 1.” for “30° C.”

Abutilon theophrasti = assay: Test Example 5: herbicidal effect by foliage application, plastic box (symbol M)
From the text: as §1
as §2, with “30° C. After the plants were grown for 14 days, the emulsion agent of the compound of the present invention prepared in accordance with Formulation Example 2 was diluted with water so as to be a predetermined herbicide amount and the diluted emulsion agent was uniformly applied to a foliage part with a small-size spray. 3 weeks later from the herbicide application, the effect to each plant was investigated in accordance with the criteria of Test Example 1.” for “30° C.”

beet = assay: Test Example 5: effect on crop by foliage application, plastic box (symbol f)
From the text: as §1, §2

Question: `CON=C(C)CC1CC(OC(=O)N(c2ccccc2)C(C)C)=C(c2c(C)cc(C)cc2C)C1=O` (stereo not shown) [1-127] was tested. Which “b: directly sowed rice plant, effect on crop (criteria 0-5)” value (rice plant) did it give?
Answer: The value was 0 (Herbicidal ratio of 5% or lower (almost no effect)).

Question: What about the “J: Alopecurus myosuroides, herbicidal effect (criteria 0-5)” value (Alopecurus myosuroides) of the same compound?
Answer: Its value is 1 (Herbicidal ratio of 5% or higher and lower than 20%).

Question: What about the “g: rapeseed, effect on crop (criteria 0-5)” value (rapeseed) of the same compound?
Answer: The value was 0 (Herbicidal ratio of 5% or lower (almost no effect)).

Question: What about the “N: Amaranthus retroflexus, herbicidal effect (criteria 0-5)” value (Amaranthus retroflexus) of the same compound?
Answer: The value was 0 (Herbicidal ratio of 5% or lower (almost no effect)).

Question: And the “L: Apera spica-venti, herbicidal effect (criteria 0-5)” value (Apera spica-venti)?
Answer: Its value is 0 (Herbicidal ratio of 5% or lower (almost no effect)).

Question: What about the “K: Lolium multiflorum Lam., herbicidal effect (criteria 0-5)” value (Lolium multiflorum Lam.) of the same compound?
Answer: The value was 1 (Herbicidal ratio of 5% or higher and lower than 20%).

Question: What about the “d: soybean, effect on crop (criteria 0-5)” value (soybean) of the same compound?
Answer: Its value is 0 (Herbicidal ratio of 5% or lower (almost no effect)).

Question: What about the “e: wheat, effect on crop (criteria 0-5)” value (wheat) of the same compound?
Answer: The value was 0 (Herbicidal ratio of 5% or lower (almost no effect)).

Question: What about the “c: corn, effect on crop (criteria 0-5)” value (corn) of the same compound?
Answer: Its value is 0 (Herbicidal ratio of 5% or lower (almost no effect)).

Question: And the “F: Digitaria ciliaris, herbicidal effect (criteria 0-5)” value (Digitaria ciliaris)?
Answer: Its value is 0 (Herbicidal ratio of 5% or lower (almost no effect)).

Question: And the “I: Avena fatua, herbicidal effect (criteria 0-5)” value (Avena fatua)?
Answer: The value was 0 (Herbicidal ratio of 5% or lower (almost no effect)).

Question: And the “Q: Galium spurium, herbicidal effect (criteria 0-5)” value (Galium spurium)?
Answer: The value was 0 (Herbicidal ratio of 5% or lower (almost no effect)).

Question: What about the “H: Echinochloa crus-galli var. crus-galli, herbicidal effect (criteria 0-5)” value [1] of the same compound?
Answer: Its value is 0 (Herbicidal ratio of 5% or lower (almost no effect)).

Question: What about the “G: Setaria viridis, herbicidal effect (criteria 0-5)” value (Setaria viridis) of the same compound?
Answer: The value was 0 (Herbicidal ratio of 5% or lower (almost no effect)).

Question: And the “P: Stellaria media, herbicidal effect (criteria 0-5)” value (Stellaria media)?
Answer: Its value is 0 (Herbicidal ratio of 5% or lower (almost no effect)).

Question: What about the “O: Chenopodium album, herbicidal effect (criteria 0-5)” value (Chenopodium album) of the same compound?
Answer: The value was 0 (Herbicidal ratio of 5% or lower (almost no effect)).

Question: What about the “R: Veronica persica, herbicidal effect (criteria 0-5)” value (Veronica persica) of the same compound?
Answer: The value was 0 (Herbicidal ratio of 5% or lower (almost no effect)).

Question: What about the “M: Abutilon theophrasti, herbicidal effect (criteria 0-5)” value (Abutilon theophrasti) of the same compound?
Answer: The value was 0 (Herbicidal ratio of 5% or lower (almost no effect)).

Question: And the “f: beet, effect on crop (criteria 0-5)” value (beet)?
Answer: Its value is 0 (Herbicidal ratio of 5% or lower (almost no effect)).
